Data published in PubChem BioAssay (NCI).
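Exposure lasted 48 hours, with cells grown in 96-well plates and compounds tested at five concentrations. GI50 marks 50% less growth. TGI is the concentration that stops growth completely.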

Test system: MDA-MB-468 breast
Experiment: NCI tumour cell line growth inhibition, 48 h

| SMILES | GI50 [µM] | TGI [µM] |
| --- | --- | --- |
| Cn1cc(C2=C(c3cc[nH]c3)C(=O)NC2=O)c2ccccc21 | 11.9 | > 25 |
| O=C(NNc1nc2cc(F)cc(F)c2n2cccc12)c1cnccn1 | 0.331 | 2.89 |
| OC(CN1CCCC2CCCCC21)c1cc2ccccc2c2ccccc12 (stereo not given) | 1.73 | 3.62 |
| CN(C)CC1C(=O)O[C@H]2[C@H]1CC/C(COC(=O)NCc1ccc(Cn3c(=O)sn(CCCI)c3=O)cc1)=C\CC[C@@]1(C)O[C@@H]21 (stereo not given in full) | 0.7 | 1.6 |
| CC(C)c1[nH]nc2c(NCc3ccc(-c4ccccn4)cc3)nc(SCCN)nc12 | 0.00335 | 0.0127 |
| COc1cc2c(NC3CCN(C(C)C)CC3)nc(C3CCCCC3)nc2cc1OCCCN1CCCC1 | 1.42 | 3.17 |
| COc1ccc2c(CCCc3ccc(Cl)cc3Cl)c3[n+](cc2c1OC)CCc1cc2c(cc1-3)OCO2 | 0.195 | 0.894 |
| Oc1ccc(Cl)cc1Sc1cc(Cl)ccc1O | 3.13 | 9.12 |
| O=C(N/N=C/c1cc(Cl)ccc1O)c1ccccc1Nc1ccnc(C(F)(F)F)c1 | 0.265 | 2.05 |
| COc1ccc(/C=C2\COc3ccc(O)c(O)c3C2=O)cc1OC | 1.58 | 4.88 |
| CC1=CC(C)(C)Nc2ccc(Cc3ccc4c(c3)C(C)=CC(C)(C)N4)cc21 | 3.81 | 16.2 |
| COc1c(B(O)O)cccc1-c1nc2ccc3[nH]ncc3c2c2c1CCCC2 | 1.69 | 4.94 |
| CC(C)(O)CCc1cccc(C(=O)c2cnn(-c3ccc(F)cc3)c2N)c1 | 13.2 | > 25 |
| CCN(CC)S(=O)(=O)c1cccc(-c2ccc3c(NC(=O)C4CC4)n[nH]c3c2)c1 | 1.22 | > 6.25 |
| C[C@H]1COCCN1c1nc(-c2cnc(N)cc2C(F)F)nc(N2CCOCC2)n1 | 0.108 | 0.732 |
| O=C(N=Nc1c(Cl)c(O)c2ccccc2c1O)C(=O)Nc1cccc(C(F)(F)F)c1 | 4.16 | 15.3 |
| COC(=O)c1c2c(c(C)[n+]([O-])c1C)C(=O)C(NCc1ccc(F)cc1)=CC2=O | 0.598 | 2.15 |
| c1cc(C2CCCCC2)ccc1-c1cnc2nonc2n1 | 0.316 | 1.36 |
| Cc1cc(Cl)nc(N(CCCNc2ccnc3cc(Cl)ccc23)Cc2cccs2)n1 | 1.04 | 4.25 |
| Cc1c(Cl)cccc1NC(=O)c1sc2nc3c(cc2c1N)C(=O)CCC3 | 0.0453 | 71.7 |
| Cc1ccc(N=Nc2c(O)ccc3n[nH]nc23)cc1 | 4.14 | 49 |
| CC(=O)O[C@@H]1C2=C(C)C3(CC3)[C@@](C)(O)C(=O)C2=C[C@@]1(C)CO | 0.209 | 0.591 |
| C(=C\c1ccncc1)/c1ccncc1 | > 100 | > 100 |
| Cc1nc2sc(C(=O)Nc3ccccc3)c(N)c2cc1C(O)c1ccccc1 (stereo not given) | 0.233 | > 65.3 |
| CCn1cc(C(=O)N/N=C/c2cccs2)c(=O)c2cc(F)c(N3CCNC(C)C3)c(F)c21 (stereo not given) | 1.66 | 3.27 |
| CN(C)c1cc2c(Nc3ccc4c(cnn4Cc4ccccc4)c3)ncnc2cn1 | 0.136 | 1.16 |
| O=C(NCc1ccco1)C1CCN(S(=O)(=O)c2ccc(Cl)cc2)CC1 | 46 | > 100 |
| CC1=NN(c2cccc(Cl)c2)C(=O)/C1=C\C=C\c1ccccc1 | 1.66 | 6.14 |
| COc1cccc(N2CCN(c3ncnc4cc[nH]c34)CC2)c1 | 0.215 | 10.2 |
| [Cl][Hg][c]1ccc2ccccc2c1 | 1.46 | 2.84 |
